Assay results taken from US20080242661A1, “Novel compounds useful for the treatment of degenerative & inflammatory diseases” (priority 2006, published 2008).

Target: purified PDE1A enzyme (Homo sapiens, UniProt P54750)
Test: In vitro PDE1A assay, dose response (Biomol Cyclic Nucleotide Phosphodiesterase Assay Kit, colorimetric)
Format: biochemical
Conditions: 100 μM cAMP, 45 min at 37° C., 8 points from 20 μM, duplicate
Description: For the dose response and further screening, we used the Cyclic Nucleotide Phosphodiesterase Assay Kit from Biomol, a colorimetric, non-radioactive assay. The basis for the assay is the cleavage of cAMP by PDE1A. The 5′AMP is further cleaved into the nucleoside and phosphate by the enzyme 5′-nucleotidase (catnr KI-307). The phosphate released due to enzymatic cleavage is quantified using BIOMOL GREEN™ reagent (catnr AK-111) in a modified Malachite Green assay 1,2. A PDE1A inhibitor will result in a decrease of the signal.
For the enzymatic reaction a mix of 25 μL with purified PDE1A enzyme, 100 μM cAMP, 5′Nucleotidase and the compound is made in a clear 384-plate. The reaction buffer is Tris 20 mM pH 7.4, 4 μg/ml calmodulin, 3 mM MgCl2, 1.5 mM CaCl2, 0.2 mg/mL BSA and 0.001% Brij-35. After an incubation of 45 minutes at 37° C., the reaction is stopped by the addition of 50 μL BIOMOL GREEN™ reagent. After 30 minutes incubation at room temperature, the readout is performed on the Envision (absorption at 615 nm).
All compounds are tested in duplicate starting from 20 μM followed by a ⅓ serial dilution, 8 points (20 μM-6.67 μM-2.22 μM-740 nM-247 nM-82 nM-27 nM-9 nM) in a final concentration of 1% DMSO. As the positive dose response control compound Vardenafil is used. For the calculation of z′ and PIN values 10 μM Vardenafil is used as positive control (100% inhibition) and 1% DMSO as negative control (0% inhibition).
The following compounds have been or can be prepared according to the synthetic methods described above. For the purpose of Table 2 below, activity of each compound, which can be determined using the PDE1A assay method described in above, is expressed as follows: […]

| SMILES | IC50 [nM] |
| --- | --- |
| CCCc1nn(C)c2c(=O)[nH]c(N(C)CCC)nc12 [Example 30, 1-methyl-5-(methyl(propyl)amino)-3-propyl-1H-pyrazolo[4,3-d]pyrimidin-7(6H)-one] | 101 to 500 |
| CCCc1nn(C)c2c(=O)[nH]c(NCc3ccc(F)cc3)nc12 [Example 23, 5-(4-fluorobenzylamino)-1-methyl-3-propyl-1H-pyrazolo[4,3-d]pyrimidin-7(6H)-one] | > 500 |
| CCCc1nn(C)c2c(=O)[nH]c(NCc3ccc4c(ccn4C)c3)nc12 [Example 68, 1-methyl-5-((1-methyl-1H-indol-5-yl)methylamino)-3-propyl-1H-pyrazolo[4,3-d]pyrimidin-7(6H)-one] | 101 to 500 |
| CCCc1nn(C)c2c(=O)[nH]c(NCc3cc(C(F)(F)F)cc(C(F)(F)F)c3)nc12 [Example 31, 5-(3,5-bis(trifluoromethyl)benzylamino)-1-methyl-3-propyl-1H-pyrazolo[4,3-d]pyrimidin-7(6H)-one] | > 500 |
| CCCc1nn(C)c2c(=O)[nH]c(NCc3ccc(Cl)c(Cl)c3)nc12 [Example 32, 5-(3,4-dichlorobenzylamino)-1-methyl-3-propyl-1H-pyrazolo[4,3-d]pyrimidin-7(6H)-one] | 101 to 500 |
| CCCc1nn(C)c2c(=O)[nH]c(NCc3ccc(N4CCN(C)CC4)cc3)nc12 [Example 6, 1-methyl-5-(4-(4-methylpiperazin-1-yl)benzylamino)-3-propyl-1H-pyrazolo[4,3-d]pyrimidin-7(6H)-one] | > 500 |
| CCCc1nn(C)c2c(=O)[nH]c(NCc3ccnc(N4CCOCC4)c3)nc12 [Example 54, 1-methyl-5-((2-morpholinopyridin-4-yl)methylamino)-3-propyl-1H-pyrazolo[4,3-d]pyrimidin-7(6H)-one] | 101 to 500 |
| CCCc1nn(C)c2c(=O)[nH]c(N(C)Cc3ccnc(N4CCCC4)c3)nc12 [Example 41, 1-methyl-5-(methyl((2-(pyrrolidin-1-yl)pyridin-4-yl)methyl)amino)-3-propyl-1H-pyrazolo[4,3-d]pyrimidin-7(6H)-one] | > 500 |
| CCCc1nn(C)c2c(=O)[nH]c(N3CCc4cc(F)ccc4C3)nc12 [Example 34, 5-(6-fluoro-3,4-dihydroisoquinolin-2(1H)-yl)-1-methyl-3-propyl-1H-pyrazolo[4,3-d]pyrimidin-7(6H)-one] | 101 to 500 |
| CCCc1nn(C)c2c(=O)[nH]c(NCc3c(-c4ccccc4)noc3C)nc12 [Example 51, 1-methyl-5-((5-methyl-3-phenylisoxazol-4-yl)methylamino)-3-propyl-1H-pyrazolo[4,3-d]pyrimidin-7(6H)-one] | 101 to 500 |
| CCCc1nn(C)c2c(=O)[nH]c(NCc3ccn(-c4ccccc4)n3)nc12 [Example 57, 1-methyl-5-((1-phenyl-1H-pyrazol-3-yl)methylamino)-3-propyl-1H-pyrazolo[4,3-d]pyrimidin-7(6H)-one] | 101 to 500 |
| CCCc1nn(C)c2c(=O)[nH]c(NCc3cccc(CN4CCOCC4)c3)nc12 [Example 53, 1-methyl-5-(3-(morpholinomethyl)benzylamino)-3-propyl-1H-pyrazolo[4,3-d]pyrimidin-7(6H)-one] | > 500 |
| CCCc1nn(C)c2c(=O)[nH]c(NCc3ccccc3OCCN3CCOCC3)nc12 [Example 50, 1-methyl-5-(2-(2-morpholinoethoxy)benzylamino)-3-propyl-1H-pyrazolo[4,3-d]pyrimidin-7(6H)-one] | > 500 |
| CCCc1nn(C)c2c(=O)[nH]c(N(C)Cc3ccc(N4CCOCC4)cc3)nc12 [Example 61, 1-methyl-5-(methyl(4-morpholinobenzyl)amino)-3-propyl-1H-pyrazolo[4,3-d]pyrimidin-7(6H)-one] | 101 to 500 |
| CC1CCCCN1c1nc2c(C3CCCC3)nn(C)c2c(=O)[nH]1 (stereo not drawn) [Example 84, 3-cyclopentyl-1-methyl-5-(2-methylpiperidin-1-yl)-1H-pyrazolo[4,3-d]pyrimidin-7(6H)-one] | > 500 |
| CCCc1nn(C)c2c(=O)[nH]c(NCCC(C)C)nc12 [Example 19, 5-(isopentylamino)-1-methyl-3-propyl-1H-pyrazolo[4,3-d]pyrimidin-7(6H)-one] | > 500 |
| CCCc1nn(C)c2c(=O)[nH]c(N3CCC(C(F)(F)F)CC3)nc12 [Example 60, 1-methyl-3-propyl-5-(4-(trifluoromethyl)piperidin-1-yl)-1H-pyrazolo[4,3-d]pyrimidin-7(6H)-one] | > 500 |
| CCCc1nn(C)c2c(=O)[nH]c(NCc3ccc(CN4CCOCC4)cc3)nc12 [Example 27, 1-methyl-5-(4-(morpholinomethyl)benzylamino)-3-propyl-1H-pyrazolo[4,3-d]pyrimidin-7(6H)-one] | 101 to 500 |
| CCCc1nn(C)c2c(=O)[nH]c(N(C)Cc3ccccc3Cl)nc12 [Example 24, 5-((2-chlorobenzyl)(methyl)amino)-1-methyl-3-propyl-1H-pyrazolo[4,3-d]pyrimidin-7(6H)-one] | 101 to 500 |
| Cn1nc(C2CCCC2)c2nc(N3CCCCC3)[nH]c(=O)c21 [Example 85, 3-cyclopentyl-1-methyl-5-(piperidin-1-yl)-1H-pyrazolo[4,3-d]pyrimidin-7(6H)-one] | > 500 |
| CCCc1nn(C)c2c(=O)[nH]c(N(C)Cc3ccccc3)nc12 [Example 33, 5-(benzyl(methyl)amino)-1-methyl-3-propyl-1H-pyrazolo[4,3-d]pyrimidin-7(6H)-one] | 101 to 500 |
| CCCc1nn(C)c2c(=O)[nH]c(N(C)Cc3ccc(C(F)(F)F)cc3)nc12 [Example 16, 1-methyl-5-(methyl(4-(trifluoromethyl)benzyl)amino)-3-propyl-1H-pyrazolo[4,3-d]pyrimidin-7(6H)-one] | 101 to 500 |
| CCCc1nn(C)c2c(=O)[nH]c(N(C)Cc3cccc(-c4csc(C)n4)c3)nc12 [Example 65, 1-methyl-5-(methyl(3-(2-methylthiazol-4-yl)benzyl)amino)-3-propyl-1H-pyrazolo[4,3-d]pyrimidin-7(6H)-one] | 101 to 500 |
| CCCc1nn(C)c2c(=O)[nH]c(NCCc3cnn(-c4ccccc4)c3)nc12 [Example 88, 1-methyl-5-(2-(1-phenyl-1H-pyrazol-4-yl)ethylamino)-3-propyl-1H-pyrazolo[4,3-d]pyrimidin-7(6H)-one] | > 500 |
| CN(CCC(C)(C)C)c1nc2c(C(C)(C)C)nn(C)c2c(=O)[nH]1 [Example 111, 3-tert-butyl-5-((3,3-dimethylbutyl)(methyl)amino)-1-methyl-1H-pyrazolo[4,3-d]pyrimidin-7(6H)-one] | < 100 |

Further lines, results first:

| IC50 [nM] | SMILES |
| --- | --- |
| < 100 | CCC(C)CN(Cc1cccc(N2CCOCC2)c1)c1nc2c(C(C)(C)C)nn(C)c2c(=O)[nH]1 (stereo not drawn) [Example 117, 3-tert-butyl-1-methyl-5-((2-methylbutyl)(3-morpholinobenzyl)amino)-1H-pyrazolo[4,3-d]pyrimidin-7(6H)-one] |
| < 100 | CCC(C)CN(Cc1cccc(-n2cncn2)c1)c1nc2c(C(C)(C)C)nn(C)c2c(=O)[nH]1 (stereo not drawn) [Example 118] |
| < 100 | CC(C)CN(Cc1cccc(-n2cccn2)c1)c1nc2c(C(C)(C)C)nn(C)c2c(=O)[nH]1 [Example 93] |
| < 100 | CCCc1nn(C)c2c(=O)[nH]c(NCc3cc(-c4ccccc4)nn3C)nc12 [Example 66, 1-methyl-5-((1-methyl-3-phenyl-1H-pyrazol-5-yl)methylamino)-3-propyl-1H-pyrazolo[4,3-d]pyrimidin-7(6H)-one] |
| < 100 | CCCc1nn(C)c2c(=O)[nH]c(N(Cc3cccc(-n4cccn4)c3)CC(C)(C)C)nc12 [Example 119] |
| < 100 | CCCc1nn(C)c2c(=O)[nH]c(N(Cc3cccc(-n4cccn4)c3)CC(CC)CC)nc12 [Example 107] |
| < 100 | CCCc1nn(C)c2c(=O)[nH]c(NCc3nn(-c4ccccc4)nc3C)nc12 [Example 52, 1-methyl-5-((5-methyl-2-phenyl-2H-1,2,3-triazol-4-yl)methylamino)-3-propyl-1H-pyrazolo[4,3-d]pyrimidin-7(6H)-one] |
| < 100 | CC(C)CN(C)c1nc2c(C(C)(C)C)nn(C)c2c(=O)[nH]1 [Example 99, 3-tert-butyl-5-(isobutyl(methyl)amino)-1-methyl-1H-pyrazolo[4,3-d]pyrimidin-7(6H)-one] |
| < 100 | CCCN(CCC)c1nc2c(C(C)(C)C)nn(C)c2c(=O)[nH]1 [Example 89, 3-tert-butyl-5-(dipropylamino)-1-methyl-1H-pyrazolo[4,3-d]pyrimidin-7(6H)-one] |
| < 100 | CN(Cc1ccc(F)cc1)c1nc2c(C3CCCC3)nn(C)c2c(=O)[nH]1 [Example 70, 3-cyclopentyl-5-((4-fluorobenzyl)(methyl)amino)-1-methyl-1H-pyrazolo[4,3-d]pyrimidin-7(6H)-one] |
| < 100 | CCCc1nn(C)c2c(=O)[nH]c(N(Cc3cccc(N4CCOCC4)c3)CC(C)CCC)nc12 (stereo not drawn) [Example 113, 1-methyl-5-((2-methylpentyl)(3-morpholinobenzyl)amino)-3-propyl-1H-pyrazolo[4,3-d]pyrimidin-7(6H)-one] |
